In PMC12615753, “Glutathione as a taste modulator: molecular mechanisms of interaction with umami and sweet taste receptors” (Food Chemistry: Molecular Sciences, 2025):

Biological target: T1, hTAS1R1 A302W/rTAS1R3 (UniProt Q7RTX1+Q923K1, A302W)
T1 construct: UniProtKB number Q7RTX1–1); The cDNA coding region of rTAS1R3 was synthesized with optimized-codon usage for human expression; expressed in transfected cells; host or cells: HEK293T/17
T1 sequence (Q7RTX1 21-841 A302W): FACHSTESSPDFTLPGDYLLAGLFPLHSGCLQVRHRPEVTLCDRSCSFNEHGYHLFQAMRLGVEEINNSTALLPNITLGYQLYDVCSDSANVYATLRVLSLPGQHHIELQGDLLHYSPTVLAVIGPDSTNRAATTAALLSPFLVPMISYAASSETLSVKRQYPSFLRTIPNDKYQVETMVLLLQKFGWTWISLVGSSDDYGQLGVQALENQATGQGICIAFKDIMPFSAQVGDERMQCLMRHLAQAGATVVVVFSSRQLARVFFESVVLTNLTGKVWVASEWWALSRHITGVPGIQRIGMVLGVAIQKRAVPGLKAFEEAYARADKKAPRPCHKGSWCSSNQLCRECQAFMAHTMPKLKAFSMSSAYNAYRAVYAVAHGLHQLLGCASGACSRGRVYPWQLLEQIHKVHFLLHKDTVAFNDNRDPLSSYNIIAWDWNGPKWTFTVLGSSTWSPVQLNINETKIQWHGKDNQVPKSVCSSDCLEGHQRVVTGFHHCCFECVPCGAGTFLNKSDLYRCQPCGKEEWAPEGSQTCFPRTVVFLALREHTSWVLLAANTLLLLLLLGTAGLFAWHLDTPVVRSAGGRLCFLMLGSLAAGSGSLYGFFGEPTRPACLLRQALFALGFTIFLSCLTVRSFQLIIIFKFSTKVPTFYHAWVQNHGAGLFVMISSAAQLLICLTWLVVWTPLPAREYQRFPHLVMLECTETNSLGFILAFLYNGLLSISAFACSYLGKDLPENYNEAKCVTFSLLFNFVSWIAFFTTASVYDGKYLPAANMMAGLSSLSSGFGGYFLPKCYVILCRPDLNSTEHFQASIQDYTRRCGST
T1 sequence (Q923K1 21-858): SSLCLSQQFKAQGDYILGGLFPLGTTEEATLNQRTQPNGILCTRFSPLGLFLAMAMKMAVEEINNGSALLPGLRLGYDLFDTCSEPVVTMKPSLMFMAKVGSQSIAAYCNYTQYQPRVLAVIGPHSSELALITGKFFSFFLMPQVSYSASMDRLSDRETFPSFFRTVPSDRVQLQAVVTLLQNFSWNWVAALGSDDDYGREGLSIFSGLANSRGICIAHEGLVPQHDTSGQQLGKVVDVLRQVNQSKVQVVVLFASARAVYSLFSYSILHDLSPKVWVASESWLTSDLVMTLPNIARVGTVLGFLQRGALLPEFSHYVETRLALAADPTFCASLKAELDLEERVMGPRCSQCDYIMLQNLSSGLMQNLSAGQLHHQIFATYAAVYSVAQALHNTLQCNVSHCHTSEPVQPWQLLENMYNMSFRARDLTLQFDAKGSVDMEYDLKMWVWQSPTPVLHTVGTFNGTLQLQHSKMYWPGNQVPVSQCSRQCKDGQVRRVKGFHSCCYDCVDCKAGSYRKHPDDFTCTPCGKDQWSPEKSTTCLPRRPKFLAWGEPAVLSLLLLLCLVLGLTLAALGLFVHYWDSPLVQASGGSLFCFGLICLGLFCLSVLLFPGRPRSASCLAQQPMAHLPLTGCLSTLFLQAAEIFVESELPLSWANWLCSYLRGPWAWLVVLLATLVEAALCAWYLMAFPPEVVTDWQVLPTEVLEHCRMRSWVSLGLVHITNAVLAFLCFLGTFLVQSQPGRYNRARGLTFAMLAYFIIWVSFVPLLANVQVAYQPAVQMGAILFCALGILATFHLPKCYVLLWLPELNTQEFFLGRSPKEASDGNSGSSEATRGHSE
Assay: Calcium assay, hTAS1R1 mutant co-expressed with rTAS1R3
Format: cell-based, human, rat
Text: Chimeric Gα proteins, such as Gα16Gust44, Gα16Gi3 or Gα15i2, are widely used in the functional expression of TAS1R receptors ([Backes et al., 2015]; [Suess et al., 2015]; [Toda et al., 2021], [Toda et al., 2013], [Toda et al., 2018]; [Zhang et al., 2008]). Chimeric Gα15i2 (([Toda et al., 2013]), Supplementary data) was generated by replacing the last five residues of the C-terminal tail of rat Gα15i2 (EINLL) (UniProt number G3V6N8; https://www.uniprot.org/uniprot/) with the counterpart sequence from human GNAI2 (DCGLF) (UniProt number P04899-1) and cloning into the pcDNA3.1/Hygro vector (Invitrogen, Thermo Fisher Scientific, Illkirch, France) between the HindIII and NotI restriction sites, resulting in the plasmid pcDNA3.1-Gα15i2. Chimeric Gα16Gust44 construct have already been reported ([Raliou et al., 2011]). Briefly, Gα16Gust44 was generated by replacing the C-terminal of Gα16 with the C-terminal 44 residues of gustducin. As previously described, hTAS1R1 was amplified from human fungiform papillae cDNA and cloned and inserted into pcDNA3 (Invitrogen), generating pcDNA3-TAS1R1-WT (wild-type) ([Raliou et al., 2011]). […] The cDNA coding region of rTAS1R3 was synthesized with optimized-codon usage for human expression (Genewiz) and was cloned and inserted into the mammalian pcDNA4/myc-HisA (Invitrogen) expression vector between the EcoRI and NotI restriction sites, resulting in the plasmid pcDNA4-rTAS1R3. […] The sequence integrity of all the plasmid constructs was verified via automated DNA sequencing (Genewiz).
The hTAS1R1 mutants were co-expressed with the rTAS1R3 subunit in HEK293 cells. […] As a control, the functionality of the mutated receptors was checked after stimulation with S807 (Fig. S8), which interacts with TAS1R1-TMD ([Zhang et al., 2008]).

SMILES	EC50	Max ∆F/F0 (A302W, GSH)	R1 = mutant EC50/WT EC50 (A302W, GSH)	response to the agonist alone, vs WT (A302W)
N[C@@H](CCC(=O)N[C@@H](CS)C(=O)NCC(=O)O)C(=O)O [GSH, γ-L-glutamyl-L-cysteinyl-glycine]	5.32 ± 2.54 mM	0.09 ± 0.01	2.1	
N[C@@H](CCC(=O)O)C(=O)O [L-Glu, L-glutamic acid, reference compound]				completely suppressed
CCCC(CCC)NC(=O)c1ccc2c(c1)OCO2 [S807, N-(heptan-4-yl)benzo[d][1,3]dioxole-5-carboxamide, reference compound]				strongly affected
